Laboratory results reported in ChEMBL document CHEMBL1138834, “Zn2+-chelating motif-tethered short-chain fatty acids as a novel class of histone deacetylase inhibitors” (J Med Chem, 2004).

system: DU-145; experiment: Effect of HTPB on DU-145 Cell viability; high degree of sensitivity, Range 0.5-1; assay type: functional, cell-based; conditions: Homo sapiens

Q: `O=C(CCCc1ccccc1)Nc1ccc(C(=O)NO)cc1` was tested. Which IC50 did it give?
A: Its IC50 is 1 µM.

biological target: Histone deacetylase; experiment: Inhibition of histone deacetylase (HDAC) activity in DU-145 nuclear extracts; assay type: protein assay, Homo sapiens; conditions: not given

Q: How did the IC50 turn out when `Nc1ccccc1NC(=O)c1ccc(CNC(=O)Cc2ccccc2)cc1` was run?
A: Its IC50 is 5.2 µM.

Q: How did the IC50 turn out when `CCCC(CCC)C(=O)Nc1ccc(CCC(=O)NO)cc1` was run?
A: The IC50 was 5 µM.

Q: How did the IC50 turn out when `O=C(CCc1ccc(NC(=O)Cc2ccccc2)cc1)NO` was run?
A: Its IC50 is 0.67 µM.

Q: With `CCCC(CCC)C(=O)Nc1ccc(CC(=O)Nc2ccccc2N)cc1` as the compound, how does the IC50 read?
A: Its IC50 is 80 µM.

Q: Which IC50 does the source give for `CCCC(=O)Nc1ccc(CCC(=O)NO)cc1` here?
A: The IC50 was 1.6 µM.

Q: How did the IC50 turn out when `O=C(CCCc1ccccc1)Nc1ccc(C(=O)NO)cc1` was run?
A: Its IC50 is 0.044 µM.

Q: Which IC50 does the source give for `CCCC(=O)NCc1ccc(C(=O)NO)cc1` here?
A: The IC50 was 3.6 µM.

Q: How did the IC50 turn out when `CCCC(=O)NCc1ccc(C(=O)Nc2ccccc2N)cc1` was run?
A: Its IC50 is 6 µM.

Q: How did the IC50 turn out when `CCCC(=O)Nc1ccc(C(=O)NO)cc1` was run?
A: Its IC50 is 1.5 µM.

Q: `O=C(CCCc1ccccc1)NCc1ccc(C(=O)NO)cc1` was tested. Which IC50 did it give?
A: The IC50 was 1.2 µM.

Q: For `O=C(Cc1ccccc1)Nc1ccc(C(=O)NO)cc1`, which IC50 is on record?
A: The IC50 was 0.11 µM.

Q: `Nc1ccccc1NC(=O)c1ccc(CNC(=O)CCCc2ccccc2)cc1` was tested. Which IC50 did it give?
A: Its IC50 is 4.3 µM.

Q: How did the IC50 turn out when `O=C(Cc1ccccc1)NCc1ccc(C(=O)NO)cc1` was run?
A: The IC50 was 2.5 µM.

Q: `O=C(CCc1ccc(NC(=O)CCCc2ccccc2)cc1)NO` was tested. Which IC50 did it give?
A: The IC50 was 0.53 µM.

biological target: Histone deacetylase; experiment: Inhibitory concentration against histone deacetylase (HDAC); Value ranges from 10-20 uM; assay type: protein assay; conditions: not given

Q: Which IC50 does the source give for `CCCC(CCC)C(=O)Nc1ccc(/C=C/C(=O)NO)cc1` here?
A: Its IC50 is < 20 µM.

Q: Which IC50 does the source give for `CCCC(CCC)C(=O)Nc1ccc(/C=C/C(=O)Nc2ccccc2N)cc1` here?
A: Its IC50 is < 20 µM.

Q: How did the IC50 turn out when `CCCC(CCC)C(=O)Nc1ccc(C(=O)Nc2ccccc2N)cc1` was run?
A: The IC50 was < 20 µM.

biological target: Histone deacetylase; experiment: Inhibitory concentration against histone deacetylase (HDAC); Value ranges from 5-8 uM; assay type: protein assay; conditions: not given

Q: `CCCC(CCC)C(=O)Nc1ccc(C(=O)NO)cc1` was tested. Which IC50 did it give?
A: The IC50 was < 8 µM.

Q: For `CCCC(CCC)C(=O)NCc1ccc(C(=O)Nc2ccccc2N)cc1`, which IC50 is on record?
A: Its IC50 is < 8 µM.

Q: Which IC50 does the source give for `CCCC(CCC)C(=O)NCc1ccc(C(=O)NO)cc1` here?
A: Its IC50 is < 8 µM.

biological target: Histone deacetylase; experiment: Inhibitory concentration against histone deacetylase (HDAC); Value ranges from 5-80 uM; assay type: protein assay; conditions: not given

Q: Which IC50 does the source give for `CCCC(CCC)C(=O)Nc1ccc(CC(=O)NO)cc1` here?
A: Its IC50 is < 80 µM.

Q: How did the IC50 turn out when `CCCC(CCC)C(=O)Nc1ccc(CCC(=O)Nc2ccccc2N)cc1` was run?
A: The IC50 was < 80 µM.
